What was measured:
subjects with MDD [1] = assay: SATE score, Example 1; type: in vivo, human; settings: Treatment Week 6, 10 mg
Source text: SATE is a one to three questionnaire administered when the subject is unable to complete other evaluations, i.e., away from the clinical setting such as at home. SATE is useful to evaluate improvement or deterioration of depressive symptoms of the subjects over a short period of time. […] See, Table C.
iv. To investigate the effect of aticaprant on symptoms of depression using the Clinical Global Impression-Severity (CGI-S), the patient reported Symptoms of Major Depressive Disorder Scale (SMDDS) and the self-assessment of treatment experience (SATE).
(§1) • (i) Depression: Montgomery-Åsberg Depression Rating Scale (MADRS), Clinical Global Impression-Severity (CGI-S), Symptoms of Major Depressive Disorder Scale (SMDDS), and Self-assessment of treatment experience (SATE) • (ii) Anhedonia: Snaith-Hamilton Pleasure Scale (SHAPS) • (iii) Anxiety: Structured Interview Guide for the Hamilton Anxiety scale (SIGH-A) and HAM-A6 • (iv) Effects on Cognition: The Cognitive and Physical Functioning Questionnaire (CPFQ) • (v) Safety assessments

subjects with MDD [2] = assay: HAM-A6 total score (anxiety), Example 1; type: in vivo, human; settings: Treatment Week 6
Source text: (§2) v. To investigate the effect of aticaprant on symptoms of anxiety using the HAM-A and on core symptoms of anxiety using the HAM-A6 subscale.
as §1

subjects with MDD [3] = assay: SIGH-A score (anxiety), Example 1; type: in vivo, human; settings: Treatment Week 6; 10 mg; 59 subjects analyzed
Source text: as §2, §1

subjects with MDD [4] = assay: Biomarker signature subtyping of MADRS treatment outcome (Example 4); type: in vivo, human
Protocol: Serum or plasma was prepared from the samples of venous blood. Measurements of human CRP and IL-6-R were performed in serum using an MSD Sector 6000 with the kits #K151STD and K151ALC (MesoScale Discovery, Rockville, MD). Human TNFα was quantified in serum using a Simoa HD-1 analyzer with kit #143 (Quanterix, Lexington, MA). Human Dynorphin was assayed in plasma using a SpectraMax M plate reader (Molecular devices, San Jose, CA) with kit #CSB-E09128h (Cusabio, Wuhan, China). All measures were performed according to kit manufacturer's recommendations.
As used in the following biomarker assay analysis, treatment (TRT) refers to treatment with an SSRI/SNRI plus Aticaprant and placebo (PBO) refers to treatment with an SSRI/SNRI plus placebo.
Treatment Outcome: Change in clinical scale at the of end of the double period. Negative values indicate improvement in depression levels relative to baseline levels. The more negative the change, the greater the improvement.
Sig^Pos: Patient meeting the criteria defined by signature of biomarkers and/or clinical scales.
3 MM: Inflammatory biomarker signature with positive status defined by CRP>3 mg/L and (TNFα>4 pg/mL or sIL6R>25 ng/ml).
4 MM: Inflammatory biomarker signature with positive status defined by high dynorphin (δ1) or 3 MM with moderate dynorphin (δ2) subtypes, specifically: DYN>δ1 pg/mL or (DYN>δ2 pg/mL and CRP>3 mg/L and (TNFα>4 pg/ml or sIL6R>25 ng/ml)). In certain embodiments, the 4 MM DYN cutoffs are as follows: Dyn>50 OR (3 MM and Dyn>8); Dyn>24 OR (3 MM and Dyn>8), or Dyn>11.4 and 3 MM.
TE Sig^Pos: Treatment Effect in Signature Positive group: (Average mean MADRS change in placebo-Average mean MADRS change in treatment) in Sig^Pos group.
TE Sig^Neg: Treatment Effect in Signature Negative group.
Sig Adv: Signature Advantage (interaction) Difference in TE between signature groups: Sig Adv=TE Sig^Pos−TE Sig^Neg.
The effect of biomarker signatures on patient response to treatment is summarized in graphical form using two panel box plots in FIG. 25. […] Red color represents placebo and teal represents aticaprant. Rectangular boxes span Diamonds and error bars represent mean and 95% Confidence Interval (CI) of treatment outcome by treatment arm and biomarker signature status. In the signature positive group, the treatment effect (difference in average treatment outcome between treatment arms) was of 6.29 MADRS points (One sided p=0.07, effect size=0.75). While in the signature negative groups, the treatment effect was 1.59 MADRS points. In other words, subjects who are biomarker signature positive improve by an additional 4.7 points […] relative to placebo when treated with aticaprant, compared to subjects who are biomarker signature negative. This signature advantage of 4.7 MADRS points represents the interaction of biomarker signature status with treatment effect. Treatment effects, signature advantage, and corresponding p values are assessed using a linear regression model for treatment outcome with independent variables for treatment, biomarker signature status, and their interaction. All p-values are one sided. Significant is defined as nominal one sided p value <0.05.

subjects with MDD [5] = assay: Treatment-emergent adverse events, full safety analysis set, Example 1
[6] = Table 24, treatment period, Full Safety Analysis Set, 10 mg, N = 85
[7] = Table 25, treatment period, Full Safety Analysis Set, 10 mg, N = 85
[8] = Treatment period, Full Safety Analysis Set, 10 mg, N = 85

SMILES: Cc1cc(C)cc(C2CCCN2Cc2ccc(Oc3ccc(C(N)=O)cc3F)cc2)c1 (stereo not shown) [aticaprant, 3-fluoro-4-4-2-(3,5-dimethylphenyl) pyrrolidin-1-yl-methylphenoxybenzamide]
- Number of Subjects with SATE Score: Depression Worsened (Much worse) (subjects with MDD [1]; n = 0): 0 subjects
- Number of Subjects with SATE Score: Depression Worsened (Slightly worse) (subjects with MDD [1]; n = 0): 0 subjects
- Number of Subjects with SATE Score: Depression Worsened (Very much worse) (subjects with MDD [1]; n = 0): 0 subjects
- Number of Subjects with SATE Score: Depression Much improved (subjects with MDD [1]; n = 21): 6 subjects
- Number of Subjects with SATE Score: Depression Slightly improved (subjects with MDD [1]; n = 21): 15 subjects
- Number of Subjects with SATE Score: Depression Very Much Improved (subjects with MDD [1]; n = 21): 0 subjects
- Number of Subjects with SATE Score: Overall Depression (Got worse) (subjects with MDD [1]; n = 30): 0 subjects
- Number of Subjects with SATE Score: Overall Depression (Improved) (subjects with MDD [1]; n = 30): 21 subjects
- Number of Subjects with SATE Score: Overall Depression (Not changed) (subjects with MDD [1]; n = 30): 9 subjects
- improvement in HAMA6 score vs. placebo (subjects with MDD [2]): greater improvement
- Change from Treatment Baseline in Structured Interview Guide for the SIGH-A Score, Arithmetic Mean (SD) (subjects with MDD [3]): −5.85 ± 5.369 scores on a scale
- treatment effect in biomarker signature positive patients (subjects with MDD [4]; 3 MM and DYN>δ signature (δ=11.5)): very large treatment effect
- average aticaprant response in biomarker signature negative patients (subjects with MDD [4]; 3 MM or DYN signature negative): worse than that of placebo
- signature advantage (subjects with MDD [4]; 3 MM or high DYN signature, in more than 60% of patients): 3-8 point
- signature advantage (TE SigPos - TE SigNeg) (subjects with MDD [4]; 3 MM signature): 4.7 MADRS points
- effect size in signature positive group (subjects with MDD [4]; 3 MM signature positive): 0.75
- treatment effect in signature positive group (placebo - treatment MADRS change) (subjects with MDD [4]; 3 MM signature positive (21% of MDD), end of double-blind): 6.3 MADRS points
- improvement compared to biomarker signature negative counterpart (subjects with MDD [4]; 4 MM signature (63% of MDD)): 6 points
- MADRS points difference at end DB relative to placebo (subjects with MDD [4]; 4 MM signature positive (63% of MDD)): 4.6 MADRS points
- treatment effects of 4 MM signatures (subjects with MDD [4]; DYN>δ1 or (3 MM and DYN>δ2), range of δ1): ≥ 4.5 MADRS points
- signature advantage of 4 MM signatures (subjects with MDD [4]; in 38-63% of patients): > 5 point
- TEAE in >=5% of subjects: Diarrhea (subjects with MDD [5]; [6]): 7 (8) n (%)
- TEAE in >=5% of subjects: Gastrointestinal Disorders (subjects with MDD [5]; [6]): 12 (14) n (%)
- TEAE in >=5% of subjects: Headache (subjects with MDD [5]; [6]): 10 (12) n (%)
- TEAE in >=5% of subjects: Infections And Infestations (subjects with MDD [5]; [6]): 13 (15) n (%)
- TEAE in >=5% of subjects: Nasopharyngitis (subjects with MDD [5]; [6]): 5 (6) n (%)
- TEAE in >=5% of subjects: Nervous System Disorders (subjects with MDD [5]; [6]): 13 (15) n (%)
- TEAE in >=5% of subjects: Pruritus (subjects with MDD [5]; [6]): 5 (6) n (%)
- TEAE in >=5% of subjects: Skin And Subcutaneous Tissue Disorders (subjects with MDD [5]; [6]): 6 (7) n (%)
- TEAE in >=5% of subjects: Total no. Subjects with Adverse Events (subjects with MDD [5]; [6]): 40 (47) n (%)
- TEAE of Special Interest: Abdominal Pain (subjects with MDD [5]; [7]): 1 (1.2) n (%)
- TEAE of Special Interest: Abdominal Pain Upper (subjects with MDD [5]; [7]): 0 n (%)
- TEAE of Special Interest: Diarrhea (subjects with MDD [5]; [7]): 7 (8.2) n (%)
- TEAE of Special Interest: Dyspepsia (subjects with MDD [5]; [7]): 1 (1.2) n (%)
- TEAE of Special Interest: Gastrointestinal Disorders (subjects with MDD [5]; [7]): 9 (10.6) n (%)
- TEAE of Special Interest: Pruritus (subjects with MDD [5]; [7]): 5 (5.9) n (%)
- TEAE of Special Interest: Skin And Subcutaneous Tissue Disorders (subjects with MDD [5]; [7]): 5 (5.9) n (%)
- TEAE of Special Interest: Total no. Subjects with Adverse Events of Special Interest (subjects with MDD [5]; [7]): 13 (15.3) n (%)
- Subjects with 1 or more TEAE (subjects with MDD [5]; [8]): 40 (47.1) n (%)
- Subjects with 1 or more serious TEAE (subjects with MDD [5]; [8]): 0 n (%)
- Subjects with TEAE leading to death (subjects with MDD [5]; [8]): 0 n (%)
- Subjects with TEAE leading to discontinuation of agent (subjects with MDD [5]; [8]): 1 (1.2) n (%)
- Total subjects affected by non-serious adverse events (subjects with MDD [5]; [8]): 23 (27.1%) n (%)
- Subjects with drug-related TEAE (subjects with MDD [5]; Treatment period, Full Safety Analysis Set, 10 mg, N = 85, relationships possible, probable, very likely): 20 (23.5) n (%)
- patients who experienced acute cholecystitis (subjects with MDD [5]; treatment period): 0 patients
- TEAE of special interest pruritus, subjects (subjects with MDD [5]; treatment period, 5/85): 5.9%
- TEAE diarrhea, subjects (subjects with MDD [5]; treatment period, 7/85): 8.2%
- TEAE headache, subjects (subjects with MDD [5]; treatment period, 10/85): 11.8%
- subjects who discontinued due to treatment-emergent adverse events (subjects with MDD [5]; treatment period, due to diarrhea, nausea, vomiting and headache): 1 subject
